The values that follow come from PMC6207662, “Postprandial glycaemia-lowering effect of a green tea cultivar Sunrouge and cultivar-specific metabolic profiling for determining bioactivity-related ingredients” (Scientific Reports, 2018).

Some results are limits rather than exact numbers.

For the first assay, the system named is postprandial blood glucose level. Kind of assay: Starch tolerance test in mice (postprandial blood glucose). Type of assay: in vivo, mice (male ICR). Particulars: compound 500 mg/kg b.w. with soluble starch 2,000 mg/kg b.w., Supplementary Fig. S5. As to the method:
Nine-week-old male ICR mice were purchased from Kyudo Company (Saga, Japan). All mice were housed and maintained in a temperature and humidity controlled room with a 12-h light-dark cycle (light from 8 am to 8 pm). All animal studies were performed in accordance with the law (protocol no. 105) and notification (protocol no. 6) of the Japanese government for the welfare of experimental animals. The study protocol was approved by the Animal Care and Use Committee, Kyushu University (Kyushu University, Scientific Research Promotion Division). Mice were randomly divided into 3 groups (n = 8) with equivalent mean body weight and starved overnight. Mice were orally administered with soluble starch (2,000 mg/kg b.w.) (Wako, Osaka, Japan) alone, or in combination with a test sample. All solutions were made in distilled water. Blood was sampled from the tail vein at before (t = 0), 30, 60, 90, 120 and 150 min after administration. The blood glucose level was measured with the Medisafe Mini GR-102 (Terumo Co., Tokyo, Japan) and the areas under the curves (AUC) were calculated.
With `O=c1c(O)c(-c2cc(O)c(O)c(O)c2)oc2cc(O)cc(O)c12` [Myr, myricetin], the “elevation of postprandial blood glucose level in oral starch tolerance test” value was “suppressed the elevation of postprandial blood glucose level”. Still for that read-out and setting: as for epigallocatechin-3-O-gallate [EGCG], the entry is “suppressed the elevation of postprandial blood glucose level”.

Another assay deals with T1, α-Glucosidase from Saccharomyces cerevisiae (Saccharomyces cerevisiae, UniProt P53341).
T1 construct: purchased Sigma-Aldrich
T1 sequence (P53341 whole entry): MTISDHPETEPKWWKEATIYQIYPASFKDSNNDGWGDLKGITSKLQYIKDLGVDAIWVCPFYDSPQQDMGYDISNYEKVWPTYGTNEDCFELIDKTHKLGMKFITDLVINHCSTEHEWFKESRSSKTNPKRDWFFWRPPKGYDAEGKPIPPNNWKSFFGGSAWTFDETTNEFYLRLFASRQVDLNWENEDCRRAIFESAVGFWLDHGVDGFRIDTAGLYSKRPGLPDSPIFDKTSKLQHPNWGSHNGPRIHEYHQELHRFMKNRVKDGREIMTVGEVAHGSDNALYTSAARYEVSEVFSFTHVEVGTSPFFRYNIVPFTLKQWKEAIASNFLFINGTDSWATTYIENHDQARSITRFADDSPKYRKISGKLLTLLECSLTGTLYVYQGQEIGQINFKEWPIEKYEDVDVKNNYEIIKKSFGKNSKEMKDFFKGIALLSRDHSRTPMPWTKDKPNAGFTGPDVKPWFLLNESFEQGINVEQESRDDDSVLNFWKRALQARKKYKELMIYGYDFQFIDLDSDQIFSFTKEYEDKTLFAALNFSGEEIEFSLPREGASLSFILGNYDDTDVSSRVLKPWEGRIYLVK
Kind of assay: Assay of α-glucosidase activity (cell-free, QuantiChrom kit). Type of assay: biochemical. Particulars: 10 μM, n=3, Supplementary Fig. S4. Here is the method: α-Glucosidase from Saccharomyces cerevisiae (Sigma-Aldrich) was dissolved in phosphate buffered saline (PBS) at a concentration of 0.01 mg/mL. Tea extracts were diluted 1:10 with distilled water. Tea extracts or various concentrations of flavonoids in DMSO were mixed 1:1 with the α-glucosidase solution. The α-glucosidase activity of the mixture was measured by the QuantiChrom™ α-Glucosidase Assay Kit (Bio Assay Systems, Hayward, CA, USA) according to the manufacturer’s instructions.
Turning to `COc1cc(C(=O)O[C@@H]2Cc3c(O)cc(O)cc3O[C@@H]2c2ccc(O)c(O)c2)cc(O)c1O` [ECG3”Me, epicatechin-3-O-(3-O-methyl) gallate], the “order of α-glucosidase inhibitory rate” value is on record as “EGCG3”Me > EGCG > ECG3”Me > ECG”.

Turning to “epigallocatechin-3-O-(3-O-methyl) gallate [EGCG3”Me]”, the “order of α-glucosidase inhibitory rate” value is recorded as “EGCG3”Me > EGCG > ECG3”Me > ECG”. Take epicatechin-3-O-gallate [ECG]: the “order of α-glucosidase inhibitory rate” value was “EGCG3”Me > EGCG > ECG3”Me > ECG”. For the compound epigallocatechin-3-O-gallate [EGCG], the “order of α-glucosidase inhibitory rate” value is listed as “EGCG3”Me > EGCG > ECG3”Me > ECG”.

The same assay, now with this note: IC50 of parent catechin / IC50 of its 3”-O-methylated form.
For epicatechin-3-O-gallate [ECG], the “enhancement of α-glucosidase inhibitory ability by O-methylation (IC50 ratio non-methylated/methylated)” value came to 4.2 fold.

With epigallocatechin-3-O-gallate [EGCG], the “enhancement of α-glucosidase inhibitory ability by O-methylation (IC50 ratio non-methylated/methylated)” value came to 1.6 fold.

The assay is the same for the next values; noted with them: Supplementary Fig. S2.
With `CCNC(=O)CC[C@H](N)C(=O)O` [theanine, L-theanine], the “effect on the activity of α-glucosidase” value is “elevated the activity of α-glucosidase”.

The assay is the same for the next values; noted with them: cell-free system.
As a reminder, the IC50 is the concentration needed to halve the response being measured. As to `COc1cc(C(=O)O[C@@H]2Cc3c(O)cc(O)cc3O[C@@H]2c2ccc(O)c(O)c2)cc(O)c1O` [ECG3”Me, epicatechin-3-O-(3-O-methyl) gallate], the half-maximal inhibitory concentration (IC50) amounted to 14.7 µM. Take `O=c1c(O)c(-c2cc(O)c(O)c(O)c2)oc2cc(O)cc(O)c12` [Myr, myricetin]: inhibition was half-maximal at 4.4 µM (IC50). Still for that read-out and setting: as for `OC[C@H]1O[C@@H](Oc2cc3c(O)cc(O)cc3[o+]c2-c2cc(O)c(O)c(O)c2)[C@H](O)[C@@H](O)[C@@H]1O` [Del-glu, delphinidin-3-O-glucoside], the figure is over 100 µM; as for “epigallocatechin-3-O-(3-O-methyl) gallate [EGCG3”Me]”, 8.1 µM; as for `O=c1c(OC2O[C@H](CO)[C@@H](O)[C@H](O)[C@H]2O)c(-c2cc(O)c(O)c(O)c2)oc2cc(O)cc(O)c12` (some centres unmarked) [Myr-glu, myricetin-3-O-glucoside], over 100 µM. Compound epicatechin-3-O-gallate [ECG] had an IC50 of 61.1 µM. Compound epigallocatechin-3-O-gallate [EGCG] returned an IC50 of 13.3 µM. Compound `Oc1cc(O)c2cc(O)c(-c3cc(O)c(O)c(O)c3)[o+]c2c1` [Del, delphinidin] registered an IC50 of 31.6 µM.
